Assay results: patent US20030140370A1, “Fungal glyoxal oxidases” (priority 2001, published 2003)

Tests used:
glyoxal oxidase (Glo1) = glyoxal oxidase (Glo1) (Ustilago maydis, UniProt Q7Z868); assay: Enzyme assay for identifying glyoxal oxidase inhibitors (Amplex Red/HRP coupled, cells of overproducer strain Bay-CA95); type: biochemical; details: negative decimal logarithm of molar IC50; intact Bay-CA95 cells, 10 mM methylglyoxal, 9 hours at 30° C., fluorescence 550/595 nm; read-out: pI50 (converted)
glyoxal oxidase (Glo1), sequence (Q7Z868 entry or part of it): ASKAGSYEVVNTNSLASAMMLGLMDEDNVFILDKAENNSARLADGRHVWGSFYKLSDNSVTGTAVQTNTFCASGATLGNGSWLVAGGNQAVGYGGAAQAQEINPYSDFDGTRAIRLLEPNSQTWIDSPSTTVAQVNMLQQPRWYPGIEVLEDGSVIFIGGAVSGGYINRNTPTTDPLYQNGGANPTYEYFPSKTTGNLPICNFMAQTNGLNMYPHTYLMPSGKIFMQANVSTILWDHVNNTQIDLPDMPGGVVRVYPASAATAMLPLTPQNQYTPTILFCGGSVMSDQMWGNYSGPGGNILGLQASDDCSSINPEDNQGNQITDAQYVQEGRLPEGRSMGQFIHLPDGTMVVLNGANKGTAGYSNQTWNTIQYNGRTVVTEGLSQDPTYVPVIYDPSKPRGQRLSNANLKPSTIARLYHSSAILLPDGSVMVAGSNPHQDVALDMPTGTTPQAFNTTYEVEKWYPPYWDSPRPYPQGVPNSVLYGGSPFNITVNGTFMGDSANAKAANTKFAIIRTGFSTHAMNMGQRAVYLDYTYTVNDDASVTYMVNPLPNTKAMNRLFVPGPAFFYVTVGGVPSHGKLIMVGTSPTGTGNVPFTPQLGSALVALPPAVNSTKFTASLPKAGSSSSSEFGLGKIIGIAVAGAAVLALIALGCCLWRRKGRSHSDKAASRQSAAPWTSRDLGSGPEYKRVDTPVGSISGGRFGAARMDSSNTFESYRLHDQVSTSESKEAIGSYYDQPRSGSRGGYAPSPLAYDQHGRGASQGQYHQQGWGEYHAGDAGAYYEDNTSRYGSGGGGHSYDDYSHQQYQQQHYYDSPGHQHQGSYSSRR
Description: The activity of glyoxal oxidase in vitro and in vivo, for example in the U. maydis cells according to the invention produced as described in Example 3 (CA95) can be detected on the basis of the conversion of the substrate methylglyoxal, exploiting the following reaction:
Methylglyoxal+O2→pyruvate+H2O2
H2O2+10-acetyl-3,7-dihydroxyphenoxazine (Amplex Red®)→resorufin+H2O
Amplex Red® reacts with H2O2 in a 1:1 stoichiometry, giving rise to resorufin (7-hydroxy-3H-phenoxazin-3-one sodium salt). The fluorescence is measured at an excitation wavelength of 550 nm and an emission of 595 nm. A substrate concentration of 10 mM methylglyoxal was employed in the assay. When using intact cells, it must be taken into consideration that the glyoxal oxidase concentration is low and that the reaction must therefore be allowed to proceed longer. Thus, for example, very good readings were obtained after incubation for 9 hours.
The enzyme assay was carried out in a total volume of 50 μl. To this end, the substances to be assayed were introduced in 10 μl substrate solution (50 mM methylglyoxal, 2.5% (v/v) DMSO) into a 384 microtitre plate. The KM value of glyoxal oxidase for methylglyoxal had previously been determined (cf. FIG. 14). The concentration of the candidate compounds to be tested for an inhibitory effect was such that the final concentration of the substances in the assay carried out was 10 μM. In the next step, 20 μl of cell solultion (cells of the overproducer strain Bay-CA95 (OD600=5); 0.2 M 2,2-dimethyl succinate buffer, pH 5, cooled at 4° C.) were added. 20 μl of detection solution (125 μM Amplex Red™ reagent (20 mM stock solution in 100% DMSO), 2.5 U/ml horseradish peroxidase, 62.5 mM sodium phosphate buffer, pH 7.4) were added to the mixture. The mixture was incubated for 9 hours at 30° C. Then, the increase in fluorescence was measured at λ=550 nm (absorption) and λ=595 nm (emission), the results of a measurement in the presence of Bay-CA95 cells being compared with the results of a measurement in the presence of the wild-type U. maydis 518 cells (see also FIG. 15). The substances used in the assay were present in the following final concentrations: c(2,2-dimethyl succinate/NaOH)=40 mM, c(Amplex Red® (Molecular Probes))=50 μM, c(horseradish peroxidase)=0.001 U/μl, c(methylglyoxal)=10 mM, OD (Bay-CA95)=1, c(sodium phosphate buffer)=25 mM. The inhibitory effect of a candidate compound could be seen from the decrease in relative fluorescence, and inhibitors were identified. […] Table II also gives pI50 values which have been determined for the individual compounds. The pI50 value is the negative decimal logarithm of what is known as the IC50 value, which indicates the molar concentration of a substance which leads to 50% inhibition of the enzyme. For example, a pI50 value of 8 corresponds to half the maximum inhibition of the enzyme at a concentration of 10 nM.

Venturia inaequalis = Venturia inaequalis (apple scab) protective test on young plants; type: in vivo; details: protective action, concentration of 250 ppm; 0% = control, 100% = no disease observed
Experimental: The antifungal action of the compounds (protective action) was tested, inter alia, on Venturia inaequalis as an example. This fungus causes what is known as apple scab, which leads to black and green mottled leaves in pomaceous fruit trees. The lesions enlarge and coalesce. Leaves which are severely infested die, which may lead to the trees losing all their leaves in summer. The infection also has an adverse effect on fruit set. Scab on fruits manifests itself in grey lesions on the skin, with suberification and deformed fruits.
To prepare a suitable preparation of active compound, 1 part by weight of active compound is mixed with, for example, 24.5 parts by weight of acetone and 24.5 parts by weight of dimethylformamide and 1.0 part by weight of alkylaryl polyglycol ether as emulsifier, and the concentrate is diluted with water to the desired concentration.
To test for protective activity, young plants are sprayed with the preparation of the active compound at the application rate stated. After the spray coating has dried on, the plants are inoculated with an aqueous conidial suspension of the apple scab pathogen Venturia inaequalis and then remain in an incubation cabinet for 1 day at approximately 20° C. and 100% relative atmospheric humidity. […]
1 to 12 days post-inoculation, the test is evaluated. […]

`COc1ccc(C(=O)Nc2ccccc2)cc1N` [Example 1] showed an IC50 (glyoxal oxidase (Glo1)) of 11 µM.

With `CCOc1ccc(NCc2ccccc2O)cc1` [Example 2] the IC50 (glyoxal oxidase (Glo1)) was 4.07 µM.

For `Nc1ccc(Oc2ccc(N)cc2)cc1` [Example 3], the IC50 (glyoxal oxidase (Glo1)) was 5.62 µM.

With `C[Si](C)(C)O[Si](C)(CCCNC(=O)/C=C\c1cc(OC(O)C(O)C(O)C(O)CO)c(O)cc1O)O[Si](C)(C)C` (stereo not drawn) [Example 4] the efficacy (Venturia inaequalis) was 45% and the IC50 (glyoxal oxidase (Glo1)) was 3.8 µM.

`COc1ccc(NCc2ccccc2O)cc1` [Example 5] was tested, and the IC50 (glyoxal oxidase (Glo1)) was 3.98 µM.
